Data reported in ChEMBL document CHEMBL1201862, “PubChem BioAssay data set” (2004).
Activity calls are given as the source filed them.

How the values were obtained:
[1] = HepG2 cell cytotoxicity, dose response, cytotoxicity control, plate reader, dry powder, set 6 (AID 743311); assay type: functional, cell-based
[2] = cells; settings: HEK293
[3] = test system: Streptococcus sp. 'group A'; assay: growth inhibition of control SK(-) GAS strain, dose response, counter-screen for streptokinase expression inhibitor project, luminescence, kanamycin, BacTiterGlo, confirmation (AID 1900); assay type: functional, organism-based
[4] = test system: Streptococcus; assay: Group A Streptococcus viability loss, dose response, counter-screen for streptokinase expression inhibitor project, luminescence, BacTiterGlo (AID 1915); assay type: functional, organism-based;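 note: potency for reduction of bacterial viability or growth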
[5] = target: T1, Hexokinase (Trypanosoma brucei, UniProt Q38C41); assay: Confirmation assay for inhibitors of Trypanosoma brucei hexokinase 1-Analogue-first series. [Related pubchem assays (depositor defined):AID1430, AID1632, AID2516, AID2560, AID2579, AID2600, AID449725, AID492951]; assay type: functional
T1 sequence (Q38C41 whole entry): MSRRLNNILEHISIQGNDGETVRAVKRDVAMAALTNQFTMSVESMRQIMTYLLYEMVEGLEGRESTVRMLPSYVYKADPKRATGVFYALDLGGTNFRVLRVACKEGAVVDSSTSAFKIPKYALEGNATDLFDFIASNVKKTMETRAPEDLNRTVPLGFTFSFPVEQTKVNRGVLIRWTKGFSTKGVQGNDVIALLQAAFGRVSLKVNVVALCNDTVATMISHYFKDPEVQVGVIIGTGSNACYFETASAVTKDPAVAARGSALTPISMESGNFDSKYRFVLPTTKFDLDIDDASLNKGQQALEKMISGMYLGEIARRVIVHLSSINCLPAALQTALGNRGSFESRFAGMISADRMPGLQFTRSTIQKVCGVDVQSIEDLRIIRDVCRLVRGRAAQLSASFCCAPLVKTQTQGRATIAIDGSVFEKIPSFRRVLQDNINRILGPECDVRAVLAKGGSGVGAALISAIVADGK

[6] = target: T2, Small ubiquitin-related modifier 1 (Homo sapiens, UniProt P63165); assay: inhibitors of SUMO1 peptide binding, dose response, biochemical, fluorescence polarization, uHTS hits (AID 624382); assay type: functional; settings: read-out: IC50_Mean
T2 sequence (P63165 whole entry): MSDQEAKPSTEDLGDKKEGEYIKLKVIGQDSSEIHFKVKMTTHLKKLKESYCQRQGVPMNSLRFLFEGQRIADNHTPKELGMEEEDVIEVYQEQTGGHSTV

[7] = target: T2, Small ubiquitin-related modifier 1; assay: inhibitors of SUMO1 partner interactions, dose response, biochemical, FRET (AID 624383); assay type: functional; settings: read-out: IC50_Mean
[8] = Concentration-dependent survival of SW480 colon cancer line, luminescence detection with CellTiter-Glo, half-maximal inhibitory concentration (AID 1117338); assay type: functional
[9] = RKO cell viability reduction, dose response, CellTiter-Glo luminescence (AID 1117322); assay type: functional
[10] = cytotoxicity toward HCT116 cells – cell-based, CellTiter-Glo luminescence, IC50, dose response (AID 1117332); assay type: functional; settings: HCT-116
[11] = SNU-C1 cell viability reduction, dose response, CellTiter-Glo luminescence (AID 1117323); assay type: functional, cell-based
[12] = cytotoxicity toward Colo320 cells – cell-based, CellTiter-Glo luminescence, IC50, dose response (AID 1117334); assay type: functional; settings: COLO 320
[13] = cytotoxicity toward HT-29 cells – cell-based, CellTiter-Glo luminescence, IC50, dose response (AID 1117330); assay type: functional
[14] = CellTiter-Glo luminescent dose response of DLD-1 viability loss (AID 1117352); assay type: functional
[15] = target: Sphingosine 1-phosphate receptor 2 (Homo sapiens, UniProt O95136); assay: Dose Response Cell Based Assay for Agonists of the S1P2 Receptor. [Related pubchem assays: 729, 736, 843 ]; assay type: functional
Chain of Sphingosine 1-phosphate receptor 2 (O95136 whole entry): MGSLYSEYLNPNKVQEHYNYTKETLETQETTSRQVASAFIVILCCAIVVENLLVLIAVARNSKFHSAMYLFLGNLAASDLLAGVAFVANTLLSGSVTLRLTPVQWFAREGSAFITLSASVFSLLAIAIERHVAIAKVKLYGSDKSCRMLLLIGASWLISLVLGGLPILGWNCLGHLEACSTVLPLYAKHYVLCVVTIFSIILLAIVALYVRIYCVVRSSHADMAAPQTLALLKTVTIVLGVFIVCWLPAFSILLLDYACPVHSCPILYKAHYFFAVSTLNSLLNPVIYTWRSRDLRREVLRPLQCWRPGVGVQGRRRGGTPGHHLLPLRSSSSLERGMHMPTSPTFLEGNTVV

[16] = target: Estrogen receptor beta (Homo sapiens, UniProt Q92731); assay: ERβ–SRC-3 coactivator interaction inhibitors, confirmation, orthogonal assay, biochemical, ELISA, streptavidin-HRP readout (AID 1060)
Chain of Estrogen receptor beta (Q92731 whole entry): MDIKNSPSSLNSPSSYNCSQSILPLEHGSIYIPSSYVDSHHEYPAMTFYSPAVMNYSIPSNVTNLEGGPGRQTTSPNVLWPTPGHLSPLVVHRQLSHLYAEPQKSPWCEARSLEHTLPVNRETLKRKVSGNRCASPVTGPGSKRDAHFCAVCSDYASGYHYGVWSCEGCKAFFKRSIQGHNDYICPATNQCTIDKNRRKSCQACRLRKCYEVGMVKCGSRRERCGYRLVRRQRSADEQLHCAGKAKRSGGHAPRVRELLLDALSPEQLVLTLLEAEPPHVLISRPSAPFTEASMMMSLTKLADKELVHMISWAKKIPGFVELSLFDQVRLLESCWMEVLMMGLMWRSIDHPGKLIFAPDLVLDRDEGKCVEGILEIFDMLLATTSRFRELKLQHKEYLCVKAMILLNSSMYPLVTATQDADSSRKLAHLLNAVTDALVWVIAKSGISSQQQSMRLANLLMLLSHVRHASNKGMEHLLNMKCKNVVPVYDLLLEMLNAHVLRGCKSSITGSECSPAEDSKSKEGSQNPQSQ

[17] = target: Protein-tyrosine kinase 2-beta (Homo sapiens, UniProt Q14289);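 note: potency of inhibitors of PYK2 kinase phosphorylation of poly-GT substrate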
[18] = target: Nonstructural protein 1 (Influenza A virus, UniProt Q194T2); assay type: functional, Influenza A virus (A/California/07/2009(H1N1))
Chain of Nonstructural protein 1 (Q194T2 whole entry): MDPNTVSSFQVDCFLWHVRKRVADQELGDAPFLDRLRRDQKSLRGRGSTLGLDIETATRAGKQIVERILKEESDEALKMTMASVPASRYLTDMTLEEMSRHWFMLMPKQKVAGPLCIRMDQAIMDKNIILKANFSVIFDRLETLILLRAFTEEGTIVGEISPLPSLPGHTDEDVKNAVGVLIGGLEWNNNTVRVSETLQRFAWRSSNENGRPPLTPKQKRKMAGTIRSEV

[19] = target: FAD-linked sulfhydryl oxidase ALR (Homo sapiens, UniProt P55789); assay: inhibitors of human ALR sulfhydryl oxidase, dose response, biochemical, H2O2 detection, luminescence, cherry-pick (AID 493248)
Chain of FAD-linked sulfhydryl oxidase ALR (P55789 whole entry): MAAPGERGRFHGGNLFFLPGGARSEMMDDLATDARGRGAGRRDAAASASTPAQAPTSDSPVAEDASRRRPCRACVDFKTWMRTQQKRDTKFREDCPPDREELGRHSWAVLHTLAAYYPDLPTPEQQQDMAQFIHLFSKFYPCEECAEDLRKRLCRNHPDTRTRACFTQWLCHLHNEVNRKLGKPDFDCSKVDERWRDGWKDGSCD

[20] = target: T3, DNA repair and recombination protein RAD54-like (Homo sapiens, UniProt Q92698); assay: inhibitors of human RAD54 branch migration, confirmation, biochemical, fluorescence, cherry-picked samples, dose series (AID 651657); assay type: functional
T3 sequence (Q92698 whole entry): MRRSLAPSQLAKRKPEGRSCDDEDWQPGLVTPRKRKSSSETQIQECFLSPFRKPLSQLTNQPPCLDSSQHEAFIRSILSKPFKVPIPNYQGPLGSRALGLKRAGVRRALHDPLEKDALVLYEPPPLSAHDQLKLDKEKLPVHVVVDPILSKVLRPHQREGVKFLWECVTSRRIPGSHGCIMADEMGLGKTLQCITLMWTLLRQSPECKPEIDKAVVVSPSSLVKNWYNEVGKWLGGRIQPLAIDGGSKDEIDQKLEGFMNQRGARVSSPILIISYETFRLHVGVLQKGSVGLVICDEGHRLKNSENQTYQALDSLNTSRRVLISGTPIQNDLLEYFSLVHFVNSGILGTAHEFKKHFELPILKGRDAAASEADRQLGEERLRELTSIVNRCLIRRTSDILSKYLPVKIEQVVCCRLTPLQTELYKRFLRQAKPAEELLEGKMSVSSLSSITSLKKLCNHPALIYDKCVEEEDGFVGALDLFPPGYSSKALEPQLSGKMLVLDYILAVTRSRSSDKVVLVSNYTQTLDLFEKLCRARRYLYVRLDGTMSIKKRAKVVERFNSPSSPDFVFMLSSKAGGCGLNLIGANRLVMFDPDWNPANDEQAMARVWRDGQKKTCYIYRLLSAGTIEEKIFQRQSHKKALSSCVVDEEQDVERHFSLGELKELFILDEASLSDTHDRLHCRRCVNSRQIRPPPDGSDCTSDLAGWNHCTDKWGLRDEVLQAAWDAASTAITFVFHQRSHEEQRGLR

[21] = target: T4, Rac GTPase-activating protein 1 (Homo sapiens, UniProt Q9H0H5); assay: MgcRacGAP GTPase-activating activity inhibitors, confirmation, biochemical, ADP Hunter fluorescence, primary and confirmatory (AID 624330); assay type: functional
T4 sequence (Q9H0H5 whole entry): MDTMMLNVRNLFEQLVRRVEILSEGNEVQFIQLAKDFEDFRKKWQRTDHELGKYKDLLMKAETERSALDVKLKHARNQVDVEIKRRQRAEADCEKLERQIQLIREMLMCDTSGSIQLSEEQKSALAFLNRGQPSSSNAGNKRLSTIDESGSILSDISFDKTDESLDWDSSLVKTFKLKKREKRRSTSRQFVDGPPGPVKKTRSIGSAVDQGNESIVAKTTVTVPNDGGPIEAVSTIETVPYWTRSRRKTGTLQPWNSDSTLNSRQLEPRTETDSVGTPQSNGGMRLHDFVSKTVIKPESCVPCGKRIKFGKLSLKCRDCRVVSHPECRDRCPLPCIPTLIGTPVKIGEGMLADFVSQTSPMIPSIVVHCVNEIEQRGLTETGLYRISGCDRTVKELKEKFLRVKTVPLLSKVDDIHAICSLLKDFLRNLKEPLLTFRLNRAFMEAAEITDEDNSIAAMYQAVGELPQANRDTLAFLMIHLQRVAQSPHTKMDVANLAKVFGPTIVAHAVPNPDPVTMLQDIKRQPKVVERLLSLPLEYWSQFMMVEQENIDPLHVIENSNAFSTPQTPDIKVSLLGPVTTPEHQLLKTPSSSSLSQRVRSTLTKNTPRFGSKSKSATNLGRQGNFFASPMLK

[22] = target: Glutathione-S-transferase (Schistosoma japonicum, UniProt Q26513); assay: biotin-GST/anti-GST TR-FRET signal inhibitors, dose response, artefact control for Vif-APOBEC3G degradation inhibitor project, biochemical (AID 1117362); assay type: functional
Chain of Glutathione-S-transferase (Q26513 whole entry): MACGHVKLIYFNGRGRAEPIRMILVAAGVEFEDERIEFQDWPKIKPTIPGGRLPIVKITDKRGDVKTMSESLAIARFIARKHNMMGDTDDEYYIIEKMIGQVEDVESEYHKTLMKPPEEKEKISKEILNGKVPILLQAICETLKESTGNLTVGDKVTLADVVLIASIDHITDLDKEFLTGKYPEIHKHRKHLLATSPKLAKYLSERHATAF

[23] = target: Peroxisome proliferator-activated receptor gamma/Nuclear receptor coactivator 2 (Homo sapiens, UniProt P37231); assay type: functional;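 note: agonist potency for raising coactivator recruitment to the receptor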
[24] = target: Peroxisome proliferator-activated receptor gamma/Nuclear receptor coactivator 1 (Homo sapiens, UniProt P37231); assay type: functional;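 note: agonist potency as compounds enhance coactivator SRC-1 recruitment to PPARgamma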
Chain of Peroxisome proliferator-activated receptor gamma/Nuclear receptor coactivator 1 (P37231 whole entry): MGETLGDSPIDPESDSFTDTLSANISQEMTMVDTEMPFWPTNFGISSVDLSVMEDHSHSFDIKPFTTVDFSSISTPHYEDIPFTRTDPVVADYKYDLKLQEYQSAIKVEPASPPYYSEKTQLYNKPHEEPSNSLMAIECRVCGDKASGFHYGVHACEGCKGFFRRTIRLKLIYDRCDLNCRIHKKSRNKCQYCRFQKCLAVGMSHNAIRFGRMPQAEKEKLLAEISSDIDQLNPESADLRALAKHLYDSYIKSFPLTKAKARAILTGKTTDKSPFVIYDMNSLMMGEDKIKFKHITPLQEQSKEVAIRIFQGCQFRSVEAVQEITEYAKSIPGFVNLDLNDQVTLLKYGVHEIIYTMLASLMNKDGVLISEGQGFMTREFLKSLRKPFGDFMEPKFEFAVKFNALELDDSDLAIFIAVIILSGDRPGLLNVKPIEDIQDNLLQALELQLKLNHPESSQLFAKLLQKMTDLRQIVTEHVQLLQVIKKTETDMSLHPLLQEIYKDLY
Chain of Peroxisome proliferator-activated receptor gamma/Nuclear receptor coactivator 1 (Q15788 whole entry, further chain): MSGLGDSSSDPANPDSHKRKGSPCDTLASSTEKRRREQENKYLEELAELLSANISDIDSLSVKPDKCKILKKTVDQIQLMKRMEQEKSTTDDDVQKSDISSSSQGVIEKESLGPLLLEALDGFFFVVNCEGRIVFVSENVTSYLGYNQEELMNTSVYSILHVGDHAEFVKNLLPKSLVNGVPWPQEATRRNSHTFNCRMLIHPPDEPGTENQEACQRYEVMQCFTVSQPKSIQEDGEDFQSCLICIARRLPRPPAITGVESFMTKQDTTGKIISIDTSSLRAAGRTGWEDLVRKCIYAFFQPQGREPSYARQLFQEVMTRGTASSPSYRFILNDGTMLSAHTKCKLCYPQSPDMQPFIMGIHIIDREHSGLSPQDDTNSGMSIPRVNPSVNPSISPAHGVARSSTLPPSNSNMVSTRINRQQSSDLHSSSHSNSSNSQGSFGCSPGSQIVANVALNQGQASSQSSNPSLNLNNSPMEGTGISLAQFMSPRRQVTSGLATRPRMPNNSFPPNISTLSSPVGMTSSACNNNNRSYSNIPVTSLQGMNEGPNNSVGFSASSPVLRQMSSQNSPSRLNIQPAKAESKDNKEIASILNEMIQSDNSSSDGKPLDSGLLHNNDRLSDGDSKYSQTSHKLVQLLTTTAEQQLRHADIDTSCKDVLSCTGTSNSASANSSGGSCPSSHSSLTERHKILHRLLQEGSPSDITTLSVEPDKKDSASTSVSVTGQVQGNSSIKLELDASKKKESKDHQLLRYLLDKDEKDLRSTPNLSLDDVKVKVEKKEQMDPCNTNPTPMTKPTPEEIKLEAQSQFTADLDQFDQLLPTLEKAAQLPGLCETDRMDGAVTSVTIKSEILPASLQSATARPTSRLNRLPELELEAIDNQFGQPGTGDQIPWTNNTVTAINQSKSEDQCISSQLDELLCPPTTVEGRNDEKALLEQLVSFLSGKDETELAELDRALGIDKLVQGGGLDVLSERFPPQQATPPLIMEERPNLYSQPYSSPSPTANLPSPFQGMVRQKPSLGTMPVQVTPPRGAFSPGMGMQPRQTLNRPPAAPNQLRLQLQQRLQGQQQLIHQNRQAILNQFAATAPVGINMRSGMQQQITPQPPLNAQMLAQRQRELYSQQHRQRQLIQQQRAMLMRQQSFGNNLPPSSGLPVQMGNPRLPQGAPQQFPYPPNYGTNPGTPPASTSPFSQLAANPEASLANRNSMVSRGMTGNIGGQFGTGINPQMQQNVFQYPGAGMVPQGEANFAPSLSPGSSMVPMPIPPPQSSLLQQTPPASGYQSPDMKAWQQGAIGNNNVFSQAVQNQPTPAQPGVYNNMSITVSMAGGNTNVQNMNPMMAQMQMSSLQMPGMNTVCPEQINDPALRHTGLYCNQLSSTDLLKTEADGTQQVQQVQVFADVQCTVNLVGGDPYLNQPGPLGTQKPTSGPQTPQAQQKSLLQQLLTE

[25] = target: Peroxisome proliferator-activated receptor gamma/Nuclear receptor coactivator 3 (Homo sapiens, UniProt P37231); assay type: functional;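 note: agonist potency for raising coactivator recruitment to the receptor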
[26] = target: Mitogen-activated protein kinase 10 (Homo sapiens, UniProt P53779); assay: Dose response biochemical screening assay for inhibitors of c-Jun N-Terminal Kinase 3 (JNK3). [Related pubchem assays: 746 ]
Chain of Mitogen-activated protein kinase 10 (P53779 whole entry): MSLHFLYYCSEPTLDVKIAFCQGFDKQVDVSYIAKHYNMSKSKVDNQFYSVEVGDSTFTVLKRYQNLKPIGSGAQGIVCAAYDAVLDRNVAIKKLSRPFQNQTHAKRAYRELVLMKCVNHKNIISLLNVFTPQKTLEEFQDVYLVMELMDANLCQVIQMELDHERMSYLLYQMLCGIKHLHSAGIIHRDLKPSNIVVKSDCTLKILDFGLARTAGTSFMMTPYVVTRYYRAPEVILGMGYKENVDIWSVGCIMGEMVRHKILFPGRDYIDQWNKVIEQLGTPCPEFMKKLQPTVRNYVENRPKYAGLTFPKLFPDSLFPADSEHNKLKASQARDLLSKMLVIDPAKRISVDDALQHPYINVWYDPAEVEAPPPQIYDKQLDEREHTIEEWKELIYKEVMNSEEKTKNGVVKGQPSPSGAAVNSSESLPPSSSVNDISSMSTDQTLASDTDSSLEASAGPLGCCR

[27] = HeLa 2N DNA content increase, dose response, cell-based, IC50 (AID 1117349); assay type: functional
[28] = HeLa 4N DNA content increase, dose response, cell-based, IC50 (AID 1117351); assay type: functional
[29] = HCT116 cell viability decrease, GSK3B pretreatment – CellTiter-Glo, IC50, dose response (AID 1117339); assay type: functional; settings: HCT-116

## Sc1nc2cc(Cl)ccc2n1CCOc1ccccc1
[1]
  AC50: > 52000 nM (inactive)
[2]
  AC50: > 52000 nM (inactive)

## Cc1cc(C(C#N)c2ccc(Cl)cc2)c(Cl)cc1NC(=O)c1cc(I)cc(I)c1O (stereo not given) [CLOSANTEL]
[3]
  EC50: 114 nM (active)
[4]
  EC50: 92 nM (active)
[5]
  IC50: 25000 nM (inactive)
[6]
  IC50: > 66600 nM (inactive)
[7]
  IC50: 6590 nM (active)
[8]
  IC50: 46 nM (active)
[9]
  IC50: 197 nM (active)
[10]
  IC50: 97.8 nM (active)
[11]
  IC50: 43.8 nM (active)
[12]
  IC50: 116 nM (active)
[13]
  IC50: 126 nM (active)
[14]
  IC50: 69 nM (active)

## Cc1cccc(C(=O)NC2CC3CCCC(C2)N3C(=O)NC2CCCCC2)c1 (stereo not given)
[15]
  EC50: > 50000 nM (not active)

## CN1CCN(c2ccc(N)cc2)CC1
[16]
  IC50: 7130 nM (not active)
[17]
  IC50: 2830 nM (active)
[18]
  IC50: 53700 nM (active)
[19]
  AC50: 3830 nM (active)
[20]
  AC50: 21900 nM (active)
[21]
  IC50: 32300 nM (active)
[22]
  IC50: 18400 nM (active)

## Cn1c(C(=O)NCc2ccco2)cc2c(=O)[nH]c3ccccc3c21
[23]
  EC50: > 79400 nM (not active)
[24]
  EC50: > 79400 nM (not active)
[25]
  EC50: > 79400 nM (not active)
[26]
  IC50: 31400 nM (not active)

## CC(=O)O[C@@]12CO[C@@H]1C[C@H](O)[C@@]1(C)C(=O)[C@H](O)C3=C(C)[C@@H](OC(=O)[C@H](O)[C@@H](NC(=O)OC(C)(C)C)c4ccccc4)C[C@@](O)([C@@H](OC(=O)c4ccccc4)[C@H]21)C3(C)C [DOCETAXEL]
[27]
  IC50: 3.1 nM (active)
[8]
  IC50: 1 nM (active)
[9]
  IC50: 1 nM (active)
[10]
  IC50: 1 nM (active)
[11]
  IC50: > 20000 nM (inactive)
[12]
  IC50: 1 nM (active)
[28]
  IC50: 3.35 nM (active)
[13]
  IC50: 1 nM (active)
[29]
  IC50: 1 nM (active)
